Results published in patent publication US9238631B2, “Radiolabeled amino acids for diagnostic imaging” (PIRAMAL IMAGING SA, priority 2011, dated 2016).

Test system: NCI-H460 (human NSCLC) cells
Test: Cell uptake studies: 30 min uptake in H460 cells
Type: cell-based
Conditions: 0.25 MBq tracer, PBS 0.1% BSA
Description: For determination of the biological activity, the F18 labeled derivatives were used as tracers in cell uptake experiments. NCI-H460 (human NSCLC) cells, grown adherently in 48 well plates were used for these uptake-experiments. Approximately 100.000 cells were incubated with 0.25 MBq of the tracers for 30 min in PBS-buffer containing 0.1% BSA. After this time, the cell-bound radioactivity was determined using a γ-counter.

SMILES: N[C@@H](CCC(Cc1ccc(OCC[18F])cc1)C(=O)O)C(=O)O (stereo partly drawn) [[^18F]-12] [(2S)-2-Amino-5-[4-(2-[^18F]fluoroethoxy)benzyl]hexanedioic acid]
- 30 min uptake into H460 cells [%/100.000 cells]: 10.5 ± 0.3 %/100.000 cells
